In BindingDB's records for doi:10.1021/jm990397l (University of Groningen, 2000):

Molecular target: 5-HT1D receptor (Bos taurus)
Experiment: Inhibition affinity against 5-HT-1D receptor in bovine caudate nucleus using radio binding assay

Q: For `Cc1nc(-c2ccc(-c3ccc(C(=O)Nc4ccc(OS(=O)(=O)C(F)(F)F)c(N5CCN(C)CC5)c4)cc3)c(C)c2)no1` [Trifluoro-methanesulfonic acid 4-{[2'-methyl-4'-(5-methyl-[1,2,4]oxadiazol-3-yl)-biphenyl-4-carbonyl]-amino}-2-(4-methyl-piperazin-1-yl)-phenyl ester], which IC50 is on record?
A: > 1000 nM
